Experiments:
Format in all cases: cell-based
[1] = test system: K. pneumoniae KP 8; assay: Broth microdilution MIC (strain enzymes: TEM-10, TEM-1, CTX-M15)
[2] = test system: E. coli SI-LP377; assay: microbe, parasite or virus in culture
[3] = test system: E. coli SI-AIRT-4; assay: Broth microdilution MIC (strain enzymes: TEM-1)
[4] = test system: K. pneumoniae 3151; assay: Broth microdilution MIC (strain enzymes: SHV-12, TEM-1)
[5] = test system: E. coli 2806; assay: as above
[6] = test system: K. pneumoniae BAA 1705; assay: Broth microdilution MIC (strain KPC-producing)

CCC(=O)N[C@H]1Cc2cccc(C(=O)O)c2OB1O [Compound 2, (R)-2-hydroxy-3-propionamido-3,4-dihydro-2H-benzo[e][1,2]oxaborinine-8-carboxylic acid]
4 µg/mL: MIC of cefalexin (LEX) ([2]; with inhibitor at 1 μg/mL) | MIC of cefdinir (CDR) ([2]; with inhibitor at 1 μg/mL) | MIC of cefalexin (LEX) ([6]; with inhibitor at 1 μg/mL) | MIC of cefdinir (CDR) ([6]; with inhibitor at 1 μg/mL)
2 µg/mL: MIC of cefalexin (LEX) ([4]; with inhibitor at 1 μg/mL) | MIC of cefdinir (CDR) ([4]; with inhibitor at 1 μg/mL) | MIC of cefixime (CFM) ([4]; with inhibitor at 4 μg/mL) | MIC of cefalexin (LEX) ([6]; with inhibitor at 2 μg/mL) | MIC of cefdinir (CDR) ([6]; with inhibitor at 2 μg/mL)
0.03 µg/mL: MIC of ceftibuten (CTB) ([1]; with inhibitor at 2 μg/mL) | MIC of ceftibuten (CTB) ([1]; with inhibitor at 4 μg/mL)
1 µg/mL: MIC of cefalexin (LEX) ([2]; with inhibitor at 2 μg/mL) | MIC of cefdinir (CDR) ([2]; with inhibitor at 2 μg/mL) | MIC of cefalexin (LEX) ([2]; with inhibitor at 4 μg/mL) | MIC of cefdinir (CDR) ([2]; with inhibitor at 4 μg/mL) | MIC of ceftibuten (CTB) ([4]; with inhibitor at 1 μg/mL) | MIC of cefalexin (LEX) ([4]; with inhibitor at 2 μg/mL) | MIC of cefdinir (CDR) ([4]; with inhibitor at 2 μg/mL)
8 µg/mL: MIC of cefixime (CFM) ([4]; with inhibitor at 2 μg/mL)
0.25 µg/mL: MIC of cefalexin (LEX) ([1]; with inhibitor at 1 μg/mL) | MIC of cefdinir (CDR) ([1]; with inhibitor at 1 μg/mL) | MIC of cefixime (CFM) ([1]; with inhibitor at 1 μg/mL) | MIC of cefixime (CFM) ([2]; with inhibitor at 2 μg/mL) | MIC of cefalexin (LEX) ([3]; with inhibitor at 1 μg/mL) | MIC of cefdinir (CDR) ([3]; with inhibitor at 1 μg/mL) | MIC of cefalexin (LEX) ([3]; with inhibitor at 2 μg/mL) | MIC of cefdinir (CDR) ([3]; with inhibitor at 2 μg/mL) | MIC of cefalexin (LEX) ([3]; with inhibitor at 4 μg/mL) | MIC of cefdinir (CDR) ([3]; with inhibitor at 4 μg/mL) | MIC of ceftibuten (CTB) ([4]; with inhibitor at 2 μg/mL) | MIC of ceftibuten (CTB) ([4]; with inhibitor at 4 μg/mL) | MIC of cefixime (CFM) ([5]; with inhibitor at 1 μg/mL) | MIC of cefalexin (LEX) ([5]; with inhibitor at 4 μg/mL) | MIC of cefdinir (CDR) ([5]; with inhibitor at 4 μg/mL)
16 µg/mL: MIC of cefixime (CFM) ([4]; with inhibitor at 1 μg/mL)
0.5 µg/mL: MIC of cefixime (CFM) ([2]; with inhibitor at 1 μg/mL) | MIC of cefalexin (LEX) ([4]; with inhibitor at 4 μg/mL) | MIC of cefdinir (CDR) ([4]; with inhibitor at 4 μg/mL) | MIC of cefixime (CFM) ([6]; with inhibitor at 1 μg/mL) | MIC of ceftibuten (CTB) ([6]; with inhibitor at 1 μg/mL) | MIC of cefixime (CFM) ([6]; with inhibitor at 2 μg/mL)
0.125 µg/mL: MIC of cefalexin (LEX) ([1]; with inhibitor at 2 μg/mL) | MIC of cefdinir (CDR) ([1]; with inhibitor at 2 μg/mL) | MIC of cefixime (CFM) ([1]; with inhibitor at 2 μg/mL) | MIC of cefalexin (LEX) ([1]; with inhibitor at 4 μg/mL) | MIC of cefdinir (CDR) ([1]; with inhibitor at 4 μg/mL) | MIC of cefixime (CFM) ([1]; with inhibitor at 4 μg/mL) | MIC of ceftibuten (CTB) ([2]; with inhibitor at 1 μg/mL) | MIC of ceftibuten (CTB) ([2]; with inhibitor at 2 μg/mL) | MIC of cefixime (CFM) ([2]; with inhibitor at 4 μg/mL) | MIC of ceftibuten (CTB) ([2]; with inhibitor at 4 μg/mL) | MIC of cefixime (CFM) ([3]; with inhibitor at 1 μg/mL) | MIC of cefixime (CFM) ([3]; with inhibitor at 2 μg/mL) | MIC of cefalexin (LEX) ([5]; with inhibitor at 1 μg/mL) | MIC of cefdinir (CDR) ([5]; with inhibitor at 1 μg/mL) | MIC of cefalexin (LEX) ([5]; with inhibitor at 2 μg/mL) | MIC of cefdinir (CDR) ([5]; with inhibitor at 2 μg/mL) | MIC of cefixime (CFM) ([5]; with inhibitor at 2 μg/mL) | MIC of ceftibuten (CTB) ([5]; with inhibitor at 2 μg/mL) | MIC of cefixime (CFM) ([5]; with inhibitor at 4 μg/mL) | MIC of ceftibuten (CTB) ([5]; with inhibitor at 4 μg/mL)
0.06 µg/mL: MIC of ceftibuten (CTB) ([1]; with inhibitor at 1 μg/mL) | MIC of ceftibuten (CTB) ([3]; with inhibitor at 1 μg/mL) | MIC of ceftibuten (CTB) ([3]; with inhibitor at 2 μg/mL) | MIC of cefixime (CFM) ([3]; with inhibitor at 4 μg/mL) | MIC of ceftibuten (CTB) ([3]; with inhibitor at 4 μg/mL) | MIC of ceftibuten (CTB) ([5]; with inhibitor at 1 μg/mL)
